For one assay, the target named is T1, M1 (Homo sapiens, UniProt P11229).
T1 construct: gene CHRM1; full-length receptor; HEK293 with TRUPATH sensors (function)
T1 sequence (P11229 1-460): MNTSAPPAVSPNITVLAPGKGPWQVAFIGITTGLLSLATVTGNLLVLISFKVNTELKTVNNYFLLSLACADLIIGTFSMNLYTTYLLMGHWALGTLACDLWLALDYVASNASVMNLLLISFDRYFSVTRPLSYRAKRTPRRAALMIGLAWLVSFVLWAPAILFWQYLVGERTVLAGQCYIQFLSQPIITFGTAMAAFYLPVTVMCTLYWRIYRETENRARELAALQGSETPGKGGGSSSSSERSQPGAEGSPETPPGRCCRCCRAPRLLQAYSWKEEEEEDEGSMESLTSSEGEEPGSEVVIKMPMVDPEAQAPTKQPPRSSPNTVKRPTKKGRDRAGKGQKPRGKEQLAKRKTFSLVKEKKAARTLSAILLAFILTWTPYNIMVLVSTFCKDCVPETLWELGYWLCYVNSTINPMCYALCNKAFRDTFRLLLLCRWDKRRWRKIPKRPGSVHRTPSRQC
The assay is described as follows: competitive radioligand binding, HEK293 membranes.

A further assay has as its target HRH4 (Homo sapiens, UniProt Q9H3N8). The assay is described as follows: cell-based. On the set-up: species or system HEK293; TRUPATH BRET2 G-protein dissociation; antagonist mode against agonist EC80. The following applies: N-Desmethyl Xanomeline, agonist mode.
Another assay deals with HTR1D (Homo sapiens, UniProt P28221). The assay is described as follows: cell-based. Details: species or system HEK293; TRUPATH BRET2 G-protein dissociation; antagonist mode against agonist EC80. The note with it: N-Desmethyl Xanomeline, agonist mode.
For another assay, the target named is T2, HTR2C (Homo sapiens, UniProt P28335).
T2 sequence (P28335 1-458): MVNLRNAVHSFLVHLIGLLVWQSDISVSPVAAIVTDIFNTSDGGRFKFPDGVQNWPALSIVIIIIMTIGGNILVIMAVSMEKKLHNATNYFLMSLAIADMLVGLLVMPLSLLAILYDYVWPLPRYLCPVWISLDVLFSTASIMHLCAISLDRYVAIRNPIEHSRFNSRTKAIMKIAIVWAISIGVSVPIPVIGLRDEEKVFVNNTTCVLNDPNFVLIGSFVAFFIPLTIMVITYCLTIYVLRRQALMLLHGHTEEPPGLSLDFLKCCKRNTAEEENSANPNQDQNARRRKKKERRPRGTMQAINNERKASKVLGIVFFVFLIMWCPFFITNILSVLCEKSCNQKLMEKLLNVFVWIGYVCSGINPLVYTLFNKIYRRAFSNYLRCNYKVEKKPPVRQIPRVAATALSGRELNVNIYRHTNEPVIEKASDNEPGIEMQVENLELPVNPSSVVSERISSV
The assay is described as follows: cell-based. Details: species or system HEK293; TRUPATH BRET2 G-protein dissociation; antagonist mode against agonist EC80. The following applies: Assay=Gq; agonist mode.

The target of a further assay is CHRM3 (Homo sapiens, UniProt P20309). The assay is described as follows: cell-based.
The next assay has as its target β2 (Homo sapiens, UniProt P07550). The assay is described as follows: competitive radioligand binding, HEK293 membranes. On the set-up: gene ADRB2; full-length receptor; HEK293 cell membranes. An excerpt:
competitive radioligand binding, HEK293 membranes on β2

In assay [1] the target is T3, α1A (Homo sapiens, UniProt P35348). The assay is described as follows: competitive radioligand binding, HEK293 membranes. On the set-up: gene ADRA1A; full-length receptor; HEK293 cell membranes. An excerpt:
competitive radioligand binding, HEK293 membranes on α1A

For the next assay, the target named is T4, H3 (Homo sapiens, UniProt Q9Y5N1).
T4 construct: gene HRH3; full-length receptor; HEK293 cell membranes
The assay is described as follows: competitive radioligand binding, HEK293 membranes. The source says: competitive radioligand binding, HEK293 membranes on H3

The target in another assay is T5, 5-HT6 (Homo sapiens, UniProt P50406).
T5 construct: gene HTR6
The assay is described as follows: biochemical. On the set-up: species or system HEK293; PDSP competitive radioligand binding, membranes of transfected HEK293 cells, filtration, Ki by Cheng-Prusoff. As for the experimental part:
Competitive radioligand binding assays were performed at the NIMH Psychoactive Drug Screening Program (PDSP) using membranes from transiently transfected HEK293 cells in 96-well format as described. Complete, target-specific protocols are available at the PDSP website (https://pdsp.unc.edu/pdspweb/?site=assays). Primary screenings were run at a single test concentration (10 µM) in quadruplicate. […] Secondary assays were conducted in triplicate using 12-point serial dilutions (0, 0.1, 0.3, 1, 3, 10, 30, 100, 300 nM; 1, 3, 10 µM). Assays were performed in a final volume of 125 µL per well in binding buffer, as detailed in the NIMH PDSP protocols (e.g., standard binding buffer: 50 mM Tris-HCl, pH 7.4, 10 mM MgCl2, 0.1 mM EDTA). Radioligand concentrations were chosen near the target-specific Kd. Total and nonspecific binding were defined in the absence and presence, respectively, of 10 µM reference ligand specific for each receptor. After 90 min incubation at room temperature, reactions were terminated by vacuum filtration onto 0.3% polyethyleneimine-pretreated UniFilter-96 GF/C Microplates using a FilterMate harvester, washed three times with ice-cold buffer (50 mM Tris HCl, pH 7.4), dried, treated with MicroScint-O [compound left out] scintillation cocktails, and counted on a MicroBeta counter. Equilibrium inhibition constants (Ki) were calculated from fitted IC50 values using the Cheng–Prusoff equation [14] with the assay-specific radioligand concentration and Kd. TABLE 1. […] Results represented mean ± SEM from a minimum of 3 independent assays, each in triplicate. ND=not determined.

For assay [2], the target named is T3, α1A. The assay is described as follows: biochemical. Details: gene ADRA1A; species or system HEK293; PDSP competitive radioligand binding, membranes of transfected HEK293 cells, filtration, Ki by Cheng-Prusoff. As for the experimental part:
Competitive radioligand binding assays were performed at the NIMH Psychoactive Drug Screening Program (PDSP) using membranes from transiently transfected HEK293 cells in 96-well format as described. Complete, target-specific protocols are available at the PDSP website (https://pdsp.unc.edu/pdspweb/?site=assays). Primary screenings were run at a single test concentration (10 µM) in quadruplicate. […] Secondary assays were conducted in triplicate using 12-point serial dilutions (0, 0.1, 0.3, 1, 3, 10, 30, 100, 300 nM; 1, 3, 10 µM). Assays were performed in a final volume of 125 µL per well in binding buffer, as detailed in the NIMH PDSP protocols (e.g., standard binding buffer: 50 mM Tris-HCl, pH 7.4, 10 mM MgCl2, 0.1 mM EDTA). Radioligand concentrations were chosen near the target-specific Kd. […] After 90 min incubation at room temperature, reactions were terminated by vacuum filtration onto 0.3% polyethyleneimine-pretreated UniFilter-96 GF/C Microplates using a FilterMate harvester, washed three times with ice-cold buffer (50 mM Tris HCl, pH 7.4), dried, treated with MicroScint-O [compound left out] scintillation cocktails, and counted on a MicroBeta counter. Equilibrium inhibition constants (Ki) were calculated from fitted IC50 values using the Cheng–Prusoff equation [14] with the assay-specific radioligand concentration and Kd. […] ND=not determined.

One may read the Ki as a measure of affinity in units of concentration, obtained from inhibition or displacement. Low readings indicate higher affinity, high ones lower affinity. As usually defined, the EC50 is the concentration at which the effect is half-maximal. Read a low EC50 as a more potent agent.

Chain of HTR1D (P28221 whole entry): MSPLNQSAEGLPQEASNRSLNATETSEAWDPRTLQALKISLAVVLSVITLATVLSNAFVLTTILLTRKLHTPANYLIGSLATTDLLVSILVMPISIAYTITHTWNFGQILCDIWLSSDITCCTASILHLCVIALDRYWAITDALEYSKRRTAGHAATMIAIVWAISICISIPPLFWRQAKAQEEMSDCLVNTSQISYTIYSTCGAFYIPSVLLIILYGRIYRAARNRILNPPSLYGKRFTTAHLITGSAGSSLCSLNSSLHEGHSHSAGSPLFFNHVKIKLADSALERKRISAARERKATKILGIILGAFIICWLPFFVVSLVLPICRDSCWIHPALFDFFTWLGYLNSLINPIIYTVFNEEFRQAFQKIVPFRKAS
Chain of HRH4 (Q9H3N8 whole entry): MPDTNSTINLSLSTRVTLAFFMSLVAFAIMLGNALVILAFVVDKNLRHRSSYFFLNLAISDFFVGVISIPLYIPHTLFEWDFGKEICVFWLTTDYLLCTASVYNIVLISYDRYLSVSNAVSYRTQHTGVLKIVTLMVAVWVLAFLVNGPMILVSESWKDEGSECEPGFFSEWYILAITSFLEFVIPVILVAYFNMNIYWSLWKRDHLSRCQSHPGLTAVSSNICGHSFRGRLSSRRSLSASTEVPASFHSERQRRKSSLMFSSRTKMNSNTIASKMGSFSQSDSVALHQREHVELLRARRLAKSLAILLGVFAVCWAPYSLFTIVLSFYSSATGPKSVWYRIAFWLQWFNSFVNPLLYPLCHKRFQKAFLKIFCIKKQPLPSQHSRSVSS
T3 sequence (P35348 whole entry): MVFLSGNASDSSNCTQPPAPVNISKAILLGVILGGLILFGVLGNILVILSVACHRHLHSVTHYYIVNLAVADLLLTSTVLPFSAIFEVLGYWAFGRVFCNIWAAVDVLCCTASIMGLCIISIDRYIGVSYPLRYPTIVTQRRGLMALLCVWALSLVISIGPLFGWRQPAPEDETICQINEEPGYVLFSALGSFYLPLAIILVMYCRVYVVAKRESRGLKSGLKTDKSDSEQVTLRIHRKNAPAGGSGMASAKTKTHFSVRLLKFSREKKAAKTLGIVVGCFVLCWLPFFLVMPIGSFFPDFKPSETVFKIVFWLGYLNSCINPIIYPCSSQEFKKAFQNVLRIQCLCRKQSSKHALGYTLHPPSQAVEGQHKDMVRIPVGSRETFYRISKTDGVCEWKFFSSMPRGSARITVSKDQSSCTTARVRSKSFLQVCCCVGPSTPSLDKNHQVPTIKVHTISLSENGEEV
Chain of β2 (P07550 whole entry): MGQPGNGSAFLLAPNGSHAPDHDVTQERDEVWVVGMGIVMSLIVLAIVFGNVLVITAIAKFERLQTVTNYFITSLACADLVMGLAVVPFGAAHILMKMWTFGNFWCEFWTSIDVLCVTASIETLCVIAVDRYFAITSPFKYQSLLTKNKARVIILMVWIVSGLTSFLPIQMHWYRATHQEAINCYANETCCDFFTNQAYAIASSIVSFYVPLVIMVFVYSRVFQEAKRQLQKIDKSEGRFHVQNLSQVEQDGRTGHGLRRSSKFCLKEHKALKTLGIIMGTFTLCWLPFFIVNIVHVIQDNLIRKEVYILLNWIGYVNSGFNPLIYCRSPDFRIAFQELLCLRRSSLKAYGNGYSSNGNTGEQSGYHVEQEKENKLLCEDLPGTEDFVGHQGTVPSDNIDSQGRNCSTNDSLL
T5 sequence (P50406 whole entry): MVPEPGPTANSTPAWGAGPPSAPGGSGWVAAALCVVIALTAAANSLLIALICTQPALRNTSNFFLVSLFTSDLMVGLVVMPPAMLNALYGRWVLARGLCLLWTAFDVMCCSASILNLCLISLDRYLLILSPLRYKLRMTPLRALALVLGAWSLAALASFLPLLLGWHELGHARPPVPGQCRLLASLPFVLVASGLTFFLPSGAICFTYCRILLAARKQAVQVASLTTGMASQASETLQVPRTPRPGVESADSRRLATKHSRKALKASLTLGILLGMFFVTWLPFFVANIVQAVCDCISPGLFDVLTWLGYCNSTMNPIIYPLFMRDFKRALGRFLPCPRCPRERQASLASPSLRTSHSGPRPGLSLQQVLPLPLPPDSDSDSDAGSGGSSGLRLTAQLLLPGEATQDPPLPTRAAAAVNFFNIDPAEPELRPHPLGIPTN
Chain of CHRM3 (P20309 whole entry): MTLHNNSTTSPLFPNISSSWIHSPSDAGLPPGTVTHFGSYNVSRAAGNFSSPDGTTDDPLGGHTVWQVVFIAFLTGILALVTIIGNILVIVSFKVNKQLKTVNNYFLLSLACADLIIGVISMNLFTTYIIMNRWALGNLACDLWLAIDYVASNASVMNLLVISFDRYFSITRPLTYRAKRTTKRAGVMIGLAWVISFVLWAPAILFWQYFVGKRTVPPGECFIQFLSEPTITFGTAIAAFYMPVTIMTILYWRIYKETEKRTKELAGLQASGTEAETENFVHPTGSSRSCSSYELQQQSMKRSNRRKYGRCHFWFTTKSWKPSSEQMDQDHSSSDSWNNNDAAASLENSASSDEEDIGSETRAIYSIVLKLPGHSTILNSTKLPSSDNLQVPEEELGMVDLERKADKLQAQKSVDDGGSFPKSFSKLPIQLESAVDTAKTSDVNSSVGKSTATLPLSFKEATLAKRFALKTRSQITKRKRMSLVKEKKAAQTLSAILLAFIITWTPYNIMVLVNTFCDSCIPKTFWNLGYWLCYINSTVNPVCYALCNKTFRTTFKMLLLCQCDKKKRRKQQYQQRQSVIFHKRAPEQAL
T4 sequence (Q9Y5N1 whole entry): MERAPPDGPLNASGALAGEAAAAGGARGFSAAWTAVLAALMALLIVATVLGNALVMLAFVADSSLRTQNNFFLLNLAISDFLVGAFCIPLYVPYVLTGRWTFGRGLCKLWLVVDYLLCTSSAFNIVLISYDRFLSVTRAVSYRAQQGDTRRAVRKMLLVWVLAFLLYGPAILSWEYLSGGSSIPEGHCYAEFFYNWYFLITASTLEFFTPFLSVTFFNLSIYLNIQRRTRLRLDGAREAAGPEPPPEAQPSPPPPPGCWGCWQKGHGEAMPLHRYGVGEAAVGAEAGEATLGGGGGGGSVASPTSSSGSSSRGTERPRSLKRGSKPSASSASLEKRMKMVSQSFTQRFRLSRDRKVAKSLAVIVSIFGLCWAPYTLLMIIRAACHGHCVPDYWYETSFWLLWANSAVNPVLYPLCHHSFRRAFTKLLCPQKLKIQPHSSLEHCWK

On to `CCCCCCOc1nsnc1C1=CCCNC1` [N-desmethylxanomeline], for which the Ki is 219 nM at M1, 832 nM at β2 and 282 nM on α1A [1]. In addition, the EC50 on HRH4 (Assay=Gi1) was determined as 4870 nM; on HRH4 (Assay=Gi2), 1390 nM; at HRH4 (Assay=Gi3) it was 6360 nM; on HRH4 (Assay=GoA), 6250 nM; on HTR1D (Assay=Gi2), 36.2 nM; at HTR1D (Assay=GoA), 63.1 nM. For the same compound, the EC50 at HTR1D (Assay=GoB) was 25.8 nM; on HTR1D (Assay=Gz), 146 nM; at HTR2C it was 1940 nM; on CHRM3 it was 380 nM.

Turning to `CCCCCCOc1nsnc1C1=CCCN(C)C1` [Xanomeline], the Ki was 794 nM at H3, 3980 nM at 5-HT6 and > 10000 nM at α1A [2].

The values are drawn from publication doi:10.1101/2025.11.20.689572v1 (biorxiv, 2025).
